# How the values were obtained:
# [1] = tested on: dextran sodium sulfate (DSS)-induced colitis; test: DSS-induced colitis in C57BL/6J (wt) and PPAR γ flfl; CD4 Cre+ mice; assay type: in vivo
# Description: Eight to twelve week old C57BL/6J (n=16) and PPAR γ flfl; CD4 cre+(n=20) mice were housed at the animal facilities at Virginia Polytechnic Institute and State University in a room maintained at 75° F., with a 12:12 h light-dark cycle starting from 6:00 AM. All experimental procedures were approved by the Institutional Animal Care and Use Committee of Virginia Polytechnic Institute and State University and met or exceeded requirements of the Public Health Service/National Institutes of Health and the Animal Welfare Act. C57BL/6J mice were fed AIN-93G-based diets with or without 100 mg/kg of a racemic ABA mixture for 35 days prior to induction of colitis with water containing 2.5% dextran sodium sulfate (DSS), 36,000-44,000 mol wt (ICN Biomedicals, Aurora, Ohio). After the DSS challenge mice were weighed on a daily basis and examined for clinical signs of disease associated with colitis (i.e., perianal soiling, rectal bleeding, diarrhea, and piloerection). For the DSS challenge, the disease activity indices and rectal bleeding scores were calculated using a modification of a previously published compounded clinical score (50). […] Spleen and mesenteric lymph nodes (MLN) were scored based on size and macroscopic inflammatory lesions (0-3), excised, and then crushed to produce single-cell suspensions for flow cytometry.
# [2] = tested on: mesenteric lymph node-derived lymphocytes; test: Proliferation and PGE2 production, mesenteric lymph node-derived lymphocytes; assay type: cell-based, mice
# [3] = tested on: adipose tissue macrophages (ATM); test: Flow cytometry of adipose tissue macrophage subsets in stromal-vascular fraction of WAT, db/db mice; assay type: in vivo
# PPAR γ = molecular target: T1, PPAR γ (Mus musculus, UniProt P37238); test: PPAR γ transactivation (luciferase reporter) in transfected 3T3-L1 pre-adipocytes; assay type: cell-based
# T1 construct: expressed in transfected cells; host or cells: 3T3-L1 pre-adipocytes (ATCC)
# T1 sequence (P37238 1-505): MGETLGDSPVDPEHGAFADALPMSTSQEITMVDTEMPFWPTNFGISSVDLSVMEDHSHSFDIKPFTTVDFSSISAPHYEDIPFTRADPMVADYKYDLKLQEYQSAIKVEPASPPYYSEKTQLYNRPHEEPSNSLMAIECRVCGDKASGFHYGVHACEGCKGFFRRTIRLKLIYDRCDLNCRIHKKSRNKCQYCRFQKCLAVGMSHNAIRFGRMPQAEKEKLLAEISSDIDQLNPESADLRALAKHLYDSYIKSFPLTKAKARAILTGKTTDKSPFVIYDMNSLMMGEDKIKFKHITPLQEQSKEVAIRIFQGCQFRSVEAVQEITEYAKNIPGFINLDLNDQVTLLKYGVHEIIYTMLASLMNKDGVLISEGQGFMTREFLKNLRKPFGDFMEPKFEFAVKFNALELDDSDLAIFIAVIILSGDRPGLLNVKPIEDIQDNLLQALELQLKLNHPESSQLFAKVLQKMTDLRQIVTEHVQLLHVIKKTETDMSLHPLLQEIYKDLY
# Description: Transformation plasmid DNA was performed using One Shot TOP10 (Invitrogen, Carlsbad, Calif.). Briefly, […] of the ligation reaction were added to a thawed 50 μl vial of One Shot® cells for each reaction. The vials were then set on ice for 30 minutes, followed by 30 seconds incubation in a 42° C. water bath. Afterwards, 250 μl of pre-warmed S.O.C medium was added to each vial. Vials were then secured on their sides in a microcentrifuge rack and were placed in a Gyromax 727 orbital shaking incubator (Amerex Instruments, Lafayette, Calif.) and incubated at 37° C. at 225 rpm. After 1 hour incubation, 100 μl of each transformation vial was spread on separate, labeled LB agar plates (Sigma-Aldrich, Milwaukee, Wis.), inverted, and incubated at 37° C. overnight. Colonies were selected and isolated using Plasmid Maxi Kit (Qiagen, Valencia, Calif.) according to manufacturer's instructions. After isolation, the plasmids were transfected into 3T3-L1 pre-adipocytes (American Type Culture Collection, Manassas, Va.) using the Targefect-BAC transfection kit. (Targeting Systems, Santee, Calif.). Briefly, 3T3-L1 cells were cultured in complete DMEM high glucose media (Invitrogen) at 37° C. for 2 days until confluence. After digestion with 2 ml trypsin (Mediatech, Herndon, Va.), the cells were resuspended in 6 ml high glucose DMEM (Mediatech) and then aliquoted into a 24 well plate. […] On the day of the reading, the cells were washed with 500 μl PBS and lysed with 100 μl lysis reagent (Promega, Madison, Wis.). After 15 minutes, lysed cells were collected and luciferase activity for each concentration was calculated using the Dual-Luciferase reporter assay system (Promega) and TD-20/20 Single-Tube Luminometer (Turner Biosystems, Sunnyvale, Calif.) according to manufacturers' instructions. Relative luciferase activity (RLA) was calculated as a ratio of the chemiluminescence 10 seconds after the Luciferase Assay Reagent II (Promega) was added over the chemiluminescence 10 seconds after the Stop&Glo Reagent (Promega). […]
smiles,measurement,setting,value
"CC1=CC(=O)CC(C)(C)C1(O)/C=C/C(C)=C\C(=O)O (racemic) [ABA, abscisic acid]",improvements in disease activity and inflammation,[1]; CD4cre mice lacking PPAR γ in CD4+ T cells,not present in the CD4cre mice
same,disease activity and macroscopic inflammation,[1]; wild-type (wt) mice,significantly reduced disease activity and macroscopically observable inflammation
same,prostaglandin E2 (PGE2) production,[2]; ABA feeding,decreased
same,augmentation of proliferation of mesenteric lymph node-derived lymphocytes,[2]; following ABA feeding,10 fold
same,F4/80hi CD11b+CCR2+ ATM subset,[3]; P=0.006,reduction
same,F4/80lo ATM,[3]; db/db mice,no effect
same,F4/80hi macrophage infiltration into WAT,"[3]; db/db mice, P=0.05",significantly suppressed
same,amount of F4/80 on surface of F4/80hi macrophages (MFI),[3]; vs control diet,significantly lower
same,PPAR γ activity at 50 μM versus 10 μM,PPAR γ; 50 μM ABA,No additional increase in PPAR γ activity
same,potency relative to rosiglitazone (times less potent),"PPAR γ; in vitro, 3T3-L1",10 fold
same,ABA concentration at which relative luciferase activity begins to be significantly increased,"PPAR γ; racemic ABA 1, 2.5, 5, 10, 50 μM, 24 hours",10 µM

# From US8367727B2, “Method of using abscisic acid to treat diseases and disorders” (priority 2006, dated 2013)
